# Measurements reported in paper PMC8395767, “Worsening of the Toxic Effects of (±)Cis-4,4′-DMAR Following Its Co-Administration with (±)Trans-4,4′-DMAR: Neuro-Behavioural, Physiological, Immunohistochemical and Metabolic Studies in Mice” (International Journal of Molecular Sciences, 2021).
# System: NOX-2
# Experiment: Immunohistochemistry, frontal cortex: NOX-2
# Type: in vivo, mice
# Settings: vs control
# Text: Following the acute death or the sacrifice of the animals (after 5-h observation period by dislocation of the spine), brains were taken. These were fixed in 4% buffered formalin and then sampled and incorporated into the paraffin (Leica ASP300 processor, Histoline TEC2900 incorporator; Leica Microsystems Srl, Buccinasco, Milano, Italy). Subsequently, the cut (performed with the Leica HistoCore autocut microtome; Leica Microsystems Srl, Buccinasco, Milano, Italy) was designed to create sections with a thickness of 5 µm for each sample.
# On 5-µm-thick paraffined […] sections, we evaluated the expression of a panel of markers: heat shock proteins (HSP27, HSP70, HSP90), SMAC/DIABLO, NF-kB, iNOS, NOX-2, NT, 8-OHDG.
# We used a detection system composed of a biotinylated secondary antibody and HRP-conjugated streptavidin (4plus HRP Universal Detection, Biocare Medical). […] In the pictures (sections of the frontal cortex; Figure 3, Figure 4 and Figure 5) to evaluate the variation in the expression of markers (Smac, NOX2, iNOS, 8-OHdG, NT, HSP27, HSP70, HSP90) following treatments, the change in intensity of brown colour (staining of the immunohistochemical technique) in the control and treated tissue was measured. Quantification of Smac, NOX2, iNOS, 8-OHdG, NT, HSP27, HSP70 and HSP90 positive-stained areas was performed by the ImageJ software (imagej.nih.gov/ij/ Accessed date 12 May 2020). […]
smiles,measurement,setting,value
"Cc1ccc(C2OC(N)=NC2C)cc1 (stereo not drawn) [cis-4,4’-DMAR, 4-methyl-5-(4-methylphenyl)-4,5-dihydrooxazol-2-amine]",Immunoreactivity of NOX-2 in the frontal cortex,60 mg/kg,did not affect
same,Immunoreactivity of NOX-2 in the frontal cortex,10 and 30 mg/kg,reduced
